Results reported in ChEMBL document CHEMBL3797038, “Synthesis and pharmacological evaluation of new biphenylic derivatives as CB2 receptor ligands” (Eur J Med Chem, 2016).
Activity calls are given as the source filed them. The rule behind the calls is not given here.

Assays:
Cannabinoid receptor 1 = Cannabinoid receptor 1 (Homo sapiens, UniProt P21554); assay: Displacement of [3H]CP55940 from human CB1 receptor expressed in CHO cell membranes after 2 hrs
Cannabinoid receptor 2 [1] = target: T1, Cannabinoid receptor 2 (Homo sapiens, UniProt P34972); assay: Displacement of [3H]CP55940 from human CB2 receptor expressed in CHO cell membranes after 2 hrs
CHO = assay: Selectivity index, ratio of Ki for human CB1 receptor expressed in CHO cell membranes to Ki for human CB2 receptor expressed in CHO cell membranes; assay type: cell-based
Cannabinoid receptor 2 [2] = target: T1, Cannabinoid receptor 2; assay: Inverse agonist activity at human CB2 receptor expressed in CHO cell membranes after 90 mins by [35S]GTPgammaS binding assay; assay type: functional
Cannabinoid receptor 2 [3] = target: T1, Cannabinoid receptor 2; assay: Neutral antagonist activity at human CB2 receptor expressed in CHO cell membranes after 90 mins by [35S]GTPgammaS binding assay; assay type: functional
Cannabinoid receptor 2 [4] = target: T1, Cannabinoid receptor 2; assay: Competitive antagonist activity at human CB2 receptor expressed in CHO cell membranes assessed as inhibition of N-cycloheptyl-4-methoxy-5-methylbiphenyl-3-carboxamide-mediated receptor stimulation by [35S]GTPgammaS binding assay; assay type: functional
Cannabinoid receptor 2 [5] = target: T1, Cannabinoid receptor 2; assay: Inhibition of N-cycloheptyl-4-methoxy-5-methylbiphenyl-3-carboxamide maximal response at human CB2 receptor expressed in CHO cell membranes by [35S]GTPgammaS binding assay; assay type: functional
Cannabinoid receptor 2 [6] = target: T1, Cannabinoid receptor 2; assay: Agonist activity at human CB2 receptor expressed in CHO cell membranes after 90 mins by [35S]GTPgammaS binding assay; assay type: functional
Cannabinoid receptor 2 [7] = target: T1, Cannabinoid receptor 2; assay: Protean agonist activity at human CB2 receptor expressed in CHO cell membranes after 90 mins by [35S]GTPgammaS binding assay; assay type: functional
Cannabinoid receptor 2 [8] = target: T1, Cannabinoid receptor 2; assay: Neutral antagonist activity at human CB2 receptor expressed in CHO cell membranes up to 10 uM after 90 mins by [35S]GTPgammaS binding assay; assay type: functional
Cannabinoid receptor 2 [9] = target: T1, Cannabinoid receptor 2; assay: Antagonist activity at human CB2 receptor expressed in CHO cell membranes assessed as inhibition of HU-210 mediated-stimulation at 1 to 10 uM by [35S]GTPgammaS binding assay; assay type: functional

Chain of Cannabinoid receptor 1 (P21554 whole entry): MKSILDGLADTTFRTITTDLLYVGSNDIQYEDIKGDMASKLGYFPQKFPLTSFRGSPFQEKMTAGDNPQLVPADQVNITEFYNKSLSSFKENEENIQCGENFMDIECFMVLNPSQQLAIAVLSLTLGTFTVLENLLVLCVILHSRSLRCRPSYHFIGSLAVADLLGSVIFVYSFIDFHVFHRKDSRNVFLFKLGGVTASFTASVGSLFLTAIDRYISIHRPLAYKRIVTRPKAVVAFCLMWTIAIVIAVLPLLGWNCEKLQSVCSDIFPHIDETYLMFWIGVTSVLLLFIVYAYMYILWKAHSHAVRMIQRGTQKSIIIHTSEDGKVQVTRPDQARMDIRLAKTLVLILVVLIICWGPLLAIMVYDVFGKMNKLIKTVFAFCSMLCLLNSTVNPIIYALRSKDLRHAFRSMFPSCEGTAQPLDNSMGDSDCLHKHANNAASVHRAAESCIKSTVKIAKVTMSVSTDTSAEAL
T1 sequence (P34972 whole entry): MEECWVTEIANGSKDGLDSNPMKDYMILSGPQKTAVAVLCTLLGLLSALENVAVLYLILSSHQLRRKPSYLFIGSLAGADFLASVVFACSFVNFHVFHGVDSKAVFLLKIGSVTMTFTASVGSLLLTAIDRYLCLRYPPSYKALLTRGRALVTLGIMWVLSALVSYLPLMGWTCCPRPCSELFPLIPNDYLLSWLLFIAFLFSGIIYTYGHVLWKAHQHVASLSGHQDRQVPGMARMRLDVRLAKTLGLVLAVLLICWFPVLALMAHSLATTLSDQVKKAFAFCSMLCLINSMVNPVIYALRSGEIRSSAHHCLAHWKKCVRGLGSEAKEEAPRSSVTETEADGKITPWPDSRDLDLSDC

| SMILES | Ki (Cannabinoid receptor 1) [µM] | Ki (Cannabinoid receptor 2 [1]) [µM] | Selectivity Index (CHO) | further results |
| --- | --- | --- | --- | --- |
| COc1c(Cc2ccc(F)cc2)cc(-c2ccccc2)cc1C(=O)N[C@H]1CC[C@H](C)CC1 | 3.09 | 2.62 | 1.2 |  |
| COc1c(Cc2ccc(F)cc2)cc(-c2ccc(F)cc2)cc1C(=O)N[C@H]1CC[C@H](C)CC1 | 1.85 | 1.09 | 1.7 |  |
| C=CCc1ccc(O)c(-c2ccc(O)c(CC=C)c2)c1 |  |  |  | Activity (Cannabinoid receptor 2 [2]): Active; Neutral antagonist activity (Cannabinoid receptor 2 [3]): Active |
| COc1c(Cc2ccc(F)cc2)cc(-c2ccc(F)cc2)cc1C(=O)NC1CCCCCC1 | 2.83 | 0.265 | 10.7 | Activity (Cannabinoid receptor 2 [2]): Active |
| COc1ccc(-c2cc(Cc3ccc(F)cc3)c(OC)c(C(=O)N[C@H]3CC[C@@H](C)CC3)c2)cc1 | 0.38 | 0.196 | 2 | inhibition (Cannabinoid receptor 2 [4]): Dose-dependent effect; inhibition (Cannabinoid receptor 2 [5]): inactive |
| COc1ccc(-c2cc(Cc3ccc(F)cc3)c(OC)c(C(=O)NC3CCCCCC3)c2)cc1 | ≥ 10 | ≥ 10 |  | Neutral antagonist activity (Cannabinoid receptor 2 [3]): Active |
| C=CCc1ccc(OC)c(-c2ccc(OC)c(CC=C)c2)c1 |  | 1.38 |  | Activity (Cannabinoid receptor 2 [6]): Active |
| COc1c(Cc2ccccc2)cc(-c2ccccc2)cc1C(=O)NC1CCCCCC1 | 1.56 | 0.594 | 2.6 | Activity (Cannabinoid receptor 2 [2]): Active |
| COc1c(Cc2ccc(F)cc2)cc(-c2ccc(F)cc2)cc1C(=O)N[C@H]1CC[C@@H](C)CC1 | 1.07 | 0.337 | 3.2 |  |
| COc1c(C)cc(-c2ccc(F)cc2)cc1C(=O)NC1CCCCCC1 |  |  |  | Activity (Cannabinoid receptor 2 [6]): Active |
| CCCCc1cc(-c2ccccc2)cc(C(=O)NC2CCCCCC2)c1OC | 1.86 | 0.352 | 5.3 | Activity (Cannabinoid receptor 2 [2]): Active |
| COc1c(Cc2ccccc2)cc(-c2ccccc2)cc1C(=O)N[C@H]1CC[C@H](C)CC1 | 2.5 | 4.81 |  |  |
| COc1c(Cc2ccc(F)cc2)cc(-c2ccccc2)cc1C(=O)NC1CCCCCC1 | 0.904 | 0.0841 | 10.7 | Activity (Cannabinoid receptor 2 [2]): Active |
| COc1c(Cc2ccccc2)cc(-c2ccccc2)cc1C(=O)N[C@H]1CC[C@@H](C)CC1 |  | 2.67 |  |  |
| COc1c(Cc2ccc(F)cc2)cc(-c2ccccc2)cc1C(=O)N[C@H]1CC[C@@H](C)CC1 | 0.826 | 1.11 | 1.3 |  |
| C=CCc1ccc(OCCCC)c(-c2ccc(O)c(CC=C)c2)c1 |  |  |  | Activity (Cannabinoid receptor 2 [7]): Active |

| SMILES | Ki (Cannabinoid receptor 1) [µM] | Ki (Cannabinoid receptor 2 [1]) [µM] | Selectivity Index (CHO) | further results |
| --- | --- | --- | --- | --- |
| CCCCc1cc(-c2ccccc2)cc(C(=O)N[C@H]2CC[C@@H](C)CC2)c1OC | 0.549 | 1.26 |  |  |
| C=CCc1ccc(O)c(-c2ccc(OC)c(CC=C)c2)c1 |  |  |  | Activity (Cannabinoid receptor 2 [6]): Active |
| C=CCc1cc(NC(=O)CCCCCCCCCCCCCCCCC)c(O)c(-c2ccc(OC)c(CC=C)c2)c1 |  | > 10 |  |  |
| COc1c(C)cc(-c2ccccc2)cc1C(=O)NC1CCCCCC1 | 0.656 | 0.148 | 4.5 | Activity (Cannabinoid receptor 2 [6]): Active |
| COc1ccc(-c2cc(Cc3ccc(F)cc3)c(OC)c(C(=O)N[C@H]3CC[C@H](C)CC3)c2)cc1 | 1.17 | 0.811 | 1.4 |  |
| CCCCc1cc(-c2ccc(OC)cc2)cc(C(=O)NC2CCCCCC2)c1OC |  | 0.249 |  | Neutral antagonist activity (Cannabinoid receptor 2 [3]): Active; inhibition (Cannabinoid receptor 2 [8]): Active; inhibition (Cannabinoid receptor 2 [9]): Active |
| CCCCc1cc(-c2ccc(F)cc2)cc(C(=O)N[C@H]2CC[C@@H](C)CC2)c1OC | 2.52 | 1.41 | 1.8 |  |
| COc1ccc(-c2cc(C)c(OC)c(C(=O)NC3CCCCCC3)c2)cc1 | 16.5 | 2.74 | 6.1 | Neutral antagonist activity (Cannabinoid receptor 2 [3]): Active |
| C=CCc1cc(NC(C)=O)c(O)c(-c2ccc(OC)c(CC=C)c2)c1 |  | > 10 |  |  |
| C=CCc1ccc(O)c(-c2ccc(OCCCC)c(CC=C)c2)c1 | 0.615 | 0.103 |  | Neutral antagonist activity (Cannabinoid receptor 2 [3]): Active |
| C=CCc1ccc(OC)c(-c2ccc(O)c(CC=C)c2)c1 |  |  |  | Activity (Cannabinoid receptor 2 [6]): Active |
| C=CCc1cc(NC(=O)CCCCCCCCCCC)c(O)c(-c2ccc(OC)c(CC=C)c2)c1 |  | > 10 |  |  |
| CCCCc1cc(-c2ccc(F)cc2)cc(C(=O)NC2CCCCCC2)c1OC | 6.11 | 0.166 | 36.8 | Activity (Cannabinoid receptor 2 [2]): Active |
| C=CCc1ccc(OCCCC)c(-c2ccc(OCCCC)c(CC=C)c2)c1 |  | 1.78 |  | Neutral antagonist activity (Cannabinoid receptor 2 [3]): Active |
| CCCCc1cc(-c2ccc(F)cc2)cc(C(=O)N[C@H]2CC[C@H](C)CC2)c1OC | ≥ 10 | 1.76 | > 5.8 |  |
| CCCCc1cc(-c2ccccc2)cc(C(=O)N[C@H]2CC[C@H](C)CC2)c1OC | 3.61 | 2.39 |  |  |
